According to PubChem BioAssay (NCI):
“And” between values parts separate entries of the source, which are not always exact repeats. Equal entries are not always repeated.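 Results reflect a 48-hour exposure of cells in 96-well plates to compound at five concentrations. GI50 is the concentration that inhibits growth by half. Definition used: TGI = concentration required for complete inhibition of growth.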

What was measured:
Experiment in all cases: NCI-60 cell line screen, 48 h
[1] = tested on: RXF 393 renal
[2] = tested on: NCI-H460 lung
[3] = tested on: PC-3 prostate
[4] = tested on: CCRF-CEM leukemia
[5] = tested on: SR leukemia
[6] = tested on: SNB-19 CNS
[7] = tested on: NCI-H522 lung
[8] = tested on: IGROV1 ovarian
[9] = tested on: HOP-62 NSCLC
[10] = tested on: UACC-62 melanoma

SMILES | TGI [1] [µM] | TGI [2] [µM] | TGI [3] [µM] | TGI [4] [µM] | TGI [5] [µM] | TGI [6] [µM] | TGI [7] [µM] | TGI [8] [µM] | TGI [9] [µM] | GI50 [1] [µM] | GI50 [2] | GI50 [3] | GI50 [10] | TGI [10] [µM] | GI50 [4] | GI50 [5] | GI50 [6] [µM] | GI50 [7] [µM] | GI50 [8] | GI50 [9]
Cn1c2c(c3ccccc31)CCN1C(=O)CCC21 (stereo not given) | > 10 | > 10 | > 10 | > 10 | > 10 | > 10 | > 10 | > 10 | > 10 |  |  |  |  |  |  |  |  |  |  | 
CC(=O)c1cc(C(=O)c2ccc3c(c2)Sc2ccccc2N3)n2ccccc12 | 20.5 |  | > 33.2 | > 33.2 | > 33.2 |  | 0.00517 | > 33.2 | > 33.2 | 0.00332 | 0.00339 µM and 0.00332 µM | 0.00453 µM and 0.00332 µM | 0.00293 µM and 0.00332 µM | > 33.2 | 0.0033 µM and 0.00332 µM | 0.00459 µM and 0.00332 µM | 0.00824 | 0.00177 | 0.00897 µM and 0.0258 µM | 0.00399 µM and 0.00332 µM
CCc1nc2ccc(N=Nc3c(O)ccc4ccccc34)cc2[nH]1 | 25.6 | 36.8 | 37.5 | 26.4 | 24.7 | > 66 | 50.3 | 36.8 | 43.6 |  |  |  |  | 35.3 |  |  |  |  |  | 
Cc1cc(Nc2nc(N[C@@H](C)c3ncc(F)cn3)ncc2Cl)n[nH]1 | 19.9 | > 100 | > 100 | > 100 | > 100 | > 100 | > 100 | > 100 | > 100 | 5.07 | 22.2 µM | 43.7 µM | 11.7 µM | 88 | 55.7 µM | 4.15 µM | 51.7 | 21.1 | 26.1 µM | 20 µM
CCN(CC)CCCC(C)N/C(=C1\C(=O)NC(=O)\C1=C(/NC(C)CCCN(CC)CC)c1cccc(OC)c1)c1cccc(OC)c1 (stereo not given) | 1.58 | 2.05 | 2.56 | 2.89 | 2.13 | 9.01 | 1.69 | 2.35 | 2.27 | 0.72 | 0.58 µM | 0.877 µM | 0.859 µM | 1.62 | 0.816 µM | 0.444 µM | 1.99 | 0.755 | 0.844 µM | 0.815 µM
CSc1nc2c(c(=O)n1C)CN(C1CCCCC1)C(=O)C(c1ccccc1)N2 (stereo not given) | > 100 | > 100 | > 100 | > 100 | > 100 | > 100 | > 100 | > 100 | > 100 | 49.5 | 37.2 µM | 21.7 µM | 8.01 µM | 57.8 | 11.3 µM | 6.38 µM | 36.7 | 11.9 | 34.6 µM | > 100 µM
Nc1ccccc1C(=O)CCC1C(=O)NC(=S)NC1=O | > 100 | > 100 | > 100 | > 100 | > 100 | > 100 | > 100 | > 100 | > 100 |  |  |  |  | > 100 |  |  |  |  |  | 
CCN(Cc1cccc(Cl)c1)c1ccc(CO)c(Cl)c1 | 19.8 | 12.3 | 23.2 | 35.4 | 39.9 | 28.6 | 27.1 | 1.62 | 16.3 | 4.67 | 0.35 µM | 9.8 µM | 0.116 µM | 1.07 | 11.9 µM | 16.9 µM | 13.8 | 12.8 | 0.111 µM | 2.09 µM
c1ccc(CNCCN(CCNCc2ccccn2)Cc2ccc3ccccc3c2)nc1 | 5.17 | 5 | 6.13 | 10.3 | 7.83 | 8.95 |  | 7.5 | 6.69 | 2.03 | 2.14 µM | 1.92 µM | 2.17 µM | 4.7 | 3.08 µM | 2.88 µM | 2.68 |  | 2.3 µM | 2.17 µM
C/C(=C(\c1ccc(OCCN2CCCCCC2)cc1)c1ccc(OC(=O)c2ccccc2)cc1)c1ccc(Cl)cc1 | 8.18 | 7.44 | 8.45 | 16.4 | 3.33 | 18.5 | 10.6 | 10.7 | 8.95 | 3.71 | 2.5 µM | 2.36 µM | 5.1 µM | 11.1 | 4.2 µM | 0.996 µM | 6.61 | 5.27 | 4.36 µM | 4.35 µM
CCc1ccc(COC(=O)C2=C(C)NC(C)=C(C(=O)OCc3ccc(CC)cn3)C2C2=COCCO2)nc1 | 37.3 | 91.3 | 43.1 | 49.8 | > 100 | 54.5 | 40.7 | > 100 | 37.8 |  |  |  |  | 36.7 |  |  |  |  |  | 
CN1CCN(Cc2ccc(NC(=O)c3cncc(C#Cc4cnc(N)c5cccnc45)c3)cc2C(F)(F)F)CC1 | 2.51 | > 50 | > 50 | > 50 | > 50 | > 50 | > 50 |  | > 19.1 | 0.255 | 0.272 µM | 0.665 µM | 0.182 µM | 0.956 | 0.234 µM | 0.293 µM | 2.05 | 0.29 |  | 0.498 µM
CC1(C)CCCC(C)(C2CCC3(C)C2C(O)CC2C4(C)CCC(O)C(C)(C)C4CCC23C)O1 (stereo not given) | 30.9 | > 100 | > 100 | > 100 | > 100 | > 100 | > 100 | > 100 |  |  |  |  |  | > 100 |  |  |  |  |  | 
CC(=O)N1N=C(c2ccc(Nc3nc(Nc4ccc(F)cc4)nc(Nc4ccc(F)cc4)n3)cc2)CC1c1ccc(N(C)C)cc1 (stereo not given) | 5.6 | 17 | 6.97 | 49.9 |  | > 100 | 30 | 30.6 | 26 | 1.56 | 4.9 µM | 1.6 µM | 2.95 µM | 12.3 | 3.36 µM |  | 16.1 | 4.81 | 7.09 µM | 5.98 µM
